Structures can show the parent of a compound that is named as a salt.
Experiments:
[1] = PXRD determination of orthorhombic form content in the micronised product; type: physicochemical; details: for orthorhombic form contained in the micronised product, as determined by PXRD / polymorphic purity (monoclinic form) of the micronised product: after micronisation; for % of orthorhombic form in the micronised product: directly after micronisation, before storage
Description: (§1) Powder X-Ray Diffraction (PXRD) patterns were acquired on a D8 Advance Series 2Theta/Theta powder diffraction system using CuKα-radiation in transmission geometry. The system was equipped with a VANTEC-1 single photon counting PSD, a Germanium monochromator, a ninety positions auto changer sample stage, fixed divergence slits and radial soller. Programs used: Data collection with DIFFRAC plus XRD Commander V.2.5.1 and evaluation with EVA V.12.0. The samples were prepared and placed in standard sample holders using two foils of polyacetate. Five hours scans in a range from 8° to 20° in 2θ were carried out.

[2] = Stability assays of the micronised samples (polymorphic stability on storage, PXRD); type: physicochemical; details: transparent and opaque vacuum containers; for % of orthorhombic form after 1 months / % of orthorhombic form after 3 months: 40° C.-75% RH; for % of orthorhombic form after 2 months: 25° C.-60% RH
Description: During the storage period of 1 month, 2 months or 3 months, a temperature of 25° C. and a relative humidity of 60%, or a temperature of 40° C. and a relative humidity of 75%, may be used. For such tests, the samples may be placed into either or both of transparent and opaque vacuum containers. […] The monoclinic and orthorhombic forms of asenapine maleate were characterised, and thus distinguished, by the powder X-ray diffraction pattern (PXRD) of the asenapine maleate, as described in EP 1710245.
as §1
Stability assays of the new stable monoclinic form of asenapine maleate obtained as described above were performed after 1 month, 2 months and 3 months. The samples were placed into two different types of containers, transparent and opaque vacuum containers. The stability tests were carried out at two different storage conditions, 25° C. and 60% relative humidity (RH), and at 40° C. and 75% RH.

orthorhombic form contained in the micronised product, as determined by PXRD [1] | % of orthorhombic form in the micronised product [1] [%] | % of orthorhombic form after 1 months [2] [%] | % of orthorhombic form after 3 months [2] [%] | % of orthorhombic form after 2 months [2] [%] | polymorphic purity (monoclinic form) of the micronised product [1] [% by weight] | SMILES
about 5 % by weight | 5 | 9 | 13 | – | – | CN1C[C@@H]2c3ccccc3Oc3ccc(Cl)cc3[C@H]2C1 (racemic) [Example 2, asenapine maleate]
– | <1 | 8 | 12 | 5 | – | CN1C[C@@H]2c3ccccc3Oc3ccc(Cl)cc3[C@H]2C1 (racemic) [Example 2.1, asenapine maleate]
about 3 % by weight | 3 | 5 | 8 | – | – | CN1C[C@@H]2c3ccccc3Oc3ccc(Cl)cc3[C@H]2C1 (racemic) [Example 3, asenapine maleate]
– | <1 | 4 | 7 | 3 | – | CN1C[C@@H]2c3ccccc3Oc3ccc(Cl)cc3[C@H]2C1 (racemic) [Example 3.1, asenapine maleate]
less than 1 % by weight | <1 | – | – | – | > 99 | CN1C[C@@H]2c3ccccc3Oc3ccc(Cl)cc3[C@H]2C1 (racemic) [Example 4, asenapine maleate]
less than 1 % by weight | <1 | – | – | – | > 99 | CN1C[C@@H]2c3ccccc3Oc3ccc(Cl)cc3[C@H]2C1 (racemic) [Example 5, asenapine maleate]
less than 1 % by weight | – | – | – | – | > 99 | CN1C[C@@H]2c3ccccc3Oc3ccc(Cl)cc3[C@H]2C1 (racemic) [Example 6, asenapine maleate]

Source: patent publication US9505771B2, “Stable micronised monoclin form of asenapine maleate and its synthesis” (Laboratories Lesvi S.L., priority 2011, dated 2016)
